Results: patent US20230167073A1 (Teijin Pharma Limited, priority 2020, published 2023)

Biological target: T1, Human TRPC6 (Homo sapiens, UniProt Q9Y210)
T1 construct: expressed in transfected cells
T1 sequence (Q9Y210 1-931): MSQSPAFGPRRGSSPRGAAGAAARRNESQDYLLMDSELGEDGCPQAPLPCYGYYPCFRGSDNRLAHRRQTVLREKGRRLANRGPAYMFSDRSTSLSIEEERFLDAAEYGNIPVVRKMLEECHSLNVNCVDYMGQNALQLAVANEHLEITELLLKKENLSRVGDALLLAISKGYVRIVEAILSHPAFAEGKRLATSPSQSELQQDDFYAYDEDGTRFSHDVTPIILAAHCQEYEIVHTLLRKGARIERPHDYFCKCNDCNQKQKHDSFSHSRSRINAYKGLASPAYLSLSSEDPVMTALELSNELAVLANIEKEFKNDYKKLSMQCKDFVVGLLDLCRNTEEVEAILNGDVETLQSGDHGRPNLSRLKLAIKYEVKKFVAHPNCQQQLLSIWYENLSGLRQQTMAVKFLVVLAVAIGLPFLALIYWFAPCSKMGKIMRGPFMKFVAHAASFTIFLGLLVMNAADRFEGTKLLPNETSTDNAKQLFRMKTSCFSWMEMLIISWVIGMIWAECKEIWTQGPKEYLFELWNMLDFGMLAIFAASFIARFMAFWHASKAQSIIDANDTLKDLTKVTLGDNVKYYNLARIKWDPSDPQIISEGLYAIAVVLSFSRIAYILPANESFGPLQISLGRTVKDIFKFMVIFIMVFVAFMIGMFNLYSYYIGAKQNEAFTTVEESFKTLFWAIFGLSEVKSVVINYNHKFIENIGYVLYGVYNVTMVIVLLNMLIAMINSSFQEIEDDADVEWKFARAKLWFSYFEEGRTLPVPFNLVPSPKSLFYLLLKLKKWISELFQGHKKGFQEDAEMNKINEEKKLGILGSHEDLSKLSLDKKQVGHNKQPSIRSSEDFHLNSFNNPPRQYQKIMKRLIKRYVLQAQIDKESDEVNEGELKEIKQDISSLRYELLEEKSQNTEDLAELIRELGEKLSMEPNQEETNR
Assay: Evaluation of TRPC6 channel inhibitory activity (1), FLIPR Calcium 5 Assay Kit, OAG stimulation (Compound Nos. 1-1293)
Format: cell-based
Details: not given
In short: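 Stable human TRPC6 line; fluorescent Ca2+ dye loading, then 20 min compound exposure before 30 μM OAG trigger. Peak-minus-baseline signal converted to % inhibition against untreated and unstimulated wells; potency given as pIC50 band.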

Row | Compound | IC50 [µM]
1 | N#Cc1ccc(-c2ncc(CCN)cn2)c(Oc2cc(N3C4CCC3CC4)ncc2C#N)c1 [compound 748, 4-[2-[5-(2-aminoethyl)pyrimidin-2-yl]-5-cyanophenoxy]-6-(7-azabicyclo[2.2.1]heptan-7-yl)pyridine-3-carbomtrile] | < 0.01

Same assay, conditions: Human TRPC6 stably-expressing cells, OAG 30 μM, FLIPR Calcium 5 Assay Kit; read-out: Inhibitory activity (pIC50 class) (converted)

Row | Compound | IC50 [µM]
2 | Cc1nc(Oc2cc(C#N)ccc2-c2ncc(CCN)cn2)cc(N2CCC[C@@H]2C)n1 [compound 860, 4-[5-(2-aminoethyl)pyrimidin-2-yl]-3-[2-methyl-6-[(2S)-2-methylpyrrolidin-1-yl]pyrimidin-4-yl]oxybenzonitrile] | < 0.01
3 | N#Cc1ccc(-c2ncc(CCN)cn2)c(Cc2cnn(-c3ccccn3)c2)c1 [compound 1197, 4-[5-(2-aminoethyl)pyrimidin-2-yl]-3-[(1-pyridin-2-ylpyrazol-4-yl)methyl]benzonitrile] | 0.01 to 1
4 | COCCN(C)c1cc(Oc2cc(C#N)ccc2-c2ncc(CCN)cn2)n(C)n1 [compound 760, 4-[5-(2-aminoethyl)pyrimidin-2-yl]-3-[5-[2-methoxyethyl(methyl)amino]-2-methylpyrazol-3-yl]oxybenzonitrile] | < 0.01
5 | Cc1cc(Oc2cc(C#N)ccc2-c2ncc(CCN)cn2)cc(-c2ncco2)n1 [compound 596, 4-[5-(2-aminoethyl)pyrimidin-2-yl]-3-[2-methyl-6-(1,3-oxazol-2-yl)pyridin-4-yl]oxybenzonitrile] | 0.01 to 1
6 | N#Cc1ccc(-c2ccc(CCN)cn2)c(Oc2nnc(N3CCCC3)s2)c1 [compound 719, 4-[5-(2-aminoethyl)pyridin-2-yl]-3-[(5-pyrrolidin-1-yl-1,3,4-thiadiazol-2-yl)oxy]benzonitrile] | 0.01 to 1
7 | Cn1ccc(-c2cc(Oc3cc(C#N)ccc3-c3ncc(CN)cn3)n(C)n2)n1 [compound 946, 4-[5-(aminomethyl)pyrimidin-2-yl]-3-[2-methyl-5-(1-methylpyrazol-3-yl)pyrazol-3-yl]oxybenzonitrile] | 0.01 to 1
8 | Cn1nc(-c2cccc(F)c2)cc1Oc1cc(C#N)ccc1-c1ccc(CCN)nc1 [Compound 187, 4-[6-(2-aminoethyl)pyridin-3-yl]-3-[5-(3-fluorophenyl)-2-methylpyrazol-3-yl]oxybenzonitrile] | < 0.01
9 | Cc1nc(Sc2cc(C#N)ccc2-c2ncc(CCN)cn2)cc(N2CCOCC2)n1 [compound 1254, 4-[5-(2-aminoethyl)pyrimidin-2-yl]-3-(2-methyl-6-morpholin-4-ylpyrimidin-4-yl)sulfanylbenzonitrile] | 0.01 to 1
10 | Cc1nc(Oc2cc(C#N)ccc2-n2cc([C@@H](O)CN)cn2)cc(-c2ccccn2)n1 [compound 352, 4-[4-[(1R)-2-amino-1-hydroxyethyl]pyrazol-1-yl]-3-(2-methyl-6-pyridin-2-ylpyrimidin-4-yl)oxybenzonitrile] | 0.01 to 1
11 | Cc1nc(Oc2cc(C#N)ccc2-n2cc([C@@H](O)CN)cn2)cc(N2CCC(C(F)(F)F)CC2)n1 [Compound 253, 4-[4-[(1R)-2-amino-1-hydroxyethyl]pyrazol-1-yl]-3-[2-methyl-6-[4-(trifluoromethyl)piperidin-1-yl]pyrimidin-4-yl]oxybenzonitrile] | < 0.01
12 | Cc1nc(Oc2cc(C#N)ccc2-c2ncc(CN)cn2)cc(N2CCC[C@@H]2C)n1 [compound 795, 4-[5-(aminomethyl)pyrimidin-2-yl]-3-[2-methyl-6-[(2S)-2-methylpyrrolidin-1-yl]pyrimidin-4-yl]oxybenzonitrile] | < 0.01
13 | Cn1nc(-c2ccccn2)cc1Oc1cc(C#N)ccc1-c1cc(CN)cn2cnnc12 [compound 732, 4-[6-(aminomethyl)-[1,2,4]triazolo[4,3-a]pyridin-8-yl]-3-(2-methyl-5-pyridin-2-ylpyrazol-3-yl)oxybenzonitrile] | 0.01 to 1
14 | Cn1nc(C2CCOCC2)cc1Oc1cc(C#N)ccc1-c1ccc(CCN)cn1 [Compound 227, 4-[5-(2-aminoethyl)pyridin-2-yl]-3-[2-methyl-5-(oxan-4-yl)pyrazol-3-yl]oxybenzonitrile] | < 0.01
15 | Cn1nc(C2CC2)cc1Oc1cc(C#N)ccc1-c1ccc2ccnc(N)c2c1 [compound 452, 4-(1-aminoisoquinolin-7-yl)-3-(5-cyclopropyl-2-methylpyrazol-3-yl)oxybenzonitrile] | > 1
16 | Cc1c(Oc2cc(C#N)ccc2-c2ncc(CN)cn2)cnn1-c1ccccn1 [compound 831, 4-[5-(aminomethyl)pyrimidin-2-yl]-3-(5-methyl-1-pyridin-2-ylpyrazol-4-yl)oxybenzonitrile] | > 1
17 | Cc1nc(OCC(C)C)cc(Oc2cc(C#N)ccc2-c2ncc(CCN)cn2)n1 [compound 849, 4-[5-(2-aminoethyl)pyrimidin-2-yl]-3-[2-methyl-6-(2-methylpropoxy)pyrimidin-4-yl]oxybenzonitrile] | < 0.01
18 | N#Cc1ccc(-c2ccc(CCN)cc2)c(C(O)c2cc(-c3ccccc3)no2)c1 (stereo not shown) [compound 1229, 4-[4-(2-aminoethyl)phenyl]-3-[hydroxy-(3-phenyl-1,2-oxazol-5-yl)methyl]benzonitrile] | 0.01 to 1
19 | N#Cc1ccc(-c2ccc(CCN)cn2)c(Cn2cnc(-c3ccccc3F)c2)c1 [compound 1143, 4-[5-(2-aminoethyl)pyridin-2-yl]-3-[[4-(2-fluorophenyl)imidazol-1-yl]methyl]benzonitrile] | < 0.01
20 | Cc1nc(-c2ccccc2)cn1Cc1cc(C#N)ccc1-c1ccc(CCN)cc1 [compound 1120, 4-[4-(2-aminoethyl)phenyl]-3-[(2-methyl-4-phenylimidazol-1-yl)methyl]benzonitrile] | < 0.01
21 | Cn1nc(N2CCCC2)cc1C(=O)c1cc(C#N)ccc1-c1ncc(CN)cn1 [compound 1072, 4-[5-(aminomethyl)pyrimidin-2-yl]-3-(2-methyl-5-pyrrolidin-1-ylpyrazole-3-carbonyl)benzonitrile] | < 0.01
22 | Cc1cc(Oc2cc(C#N)ccc2-c2ncc([C@H](O)CN)cn2)cc(N2CCO[C@@H](C)C2)n1 [compound 530, 4-[5-[(1S)-2-amino-1-hydroxyethyl]pyrimidin-2-yl]-3-[2-methyl-6-[(2S)-2-methylmorpholin-4-yl]pyridin-4-yl]oxybenzonitrile] | < 0.01
23 | Cn1nc(-c2ccccc2)cc1Oc1cc(C#N)ccc1-c1ccc(C(N)C(N)=O)cn1 (stereo not shown) [compound 516, 2-amino-2-[6-[4-cyano-2-(2-methyl-5-phenylpyrazol-3-yl)oxyphenyl]pyridin-3-yl]acetamide] | > 1
24 | N#Cc1ccc(-c2ccc(CCN)cn2)c(Cn2cnc(-c3cccc(F)c3)c2)c1 [compound 1149, 4-[5-(2-aminoethyl)pyridin-2-yl]-3-[[4-(3-fluorophenyl)imidazol-1-yl]methyl]benzonitrile] | < 0.01
25 | N#Cc1ccc(-c2ccc(CCN)cc2)c(Oc2cnnc(-c3cccc(F)c3C#N)c2)c1 [Compound 84, 2-[5-[2-[4-(2-aminoethyl)phenyl]-5-cyanophenoxy]pyridazin-3-yl]-6-fluorobenzonitrile] | 0.01 to 1
26 | Cc1nc(Oc2cc(C#N)ccc2-c2ccc(CCN)cc2)cc(N2CCC[C@H]2C#N)n1 [Compound 112, (2S)-1-[6-[2-[4-(2-aminoethyl)phenyl]-5-cyanophenoxy]-2-methylpyrimidin-4 yl]pyrrolidine-2-carbonitrile] | < 0.01
27 | Cc1ncc(N2CCOCC2)cc1Oc1cc(C#N)ccc1-c1ncc(CN)cn1 [compound 920, 4-[5-(aminomethyl)pyrimidin-2-yl]-3-(2-methyl-5-morpholin-4-ylpyridin-3-yl)oxybenzonitrile] | > 1
28 | N#Cc1ccc(-c2ccc(CCN)cc2)c(Oc2cnnc(OCC(F)(F)F)c2)c1 [Compound 109, 4-[4-(2-aminoethyl)phenyl]-3-[6-(2,2,2-trifluoroethoxy)pyridazin-4-yl]oxybenzonitrile] | > 1
29 | Cc1nc(Oc2cc(C#N)ccc2-c2ccc(CCN)cc2)cc(-c2ccccc2C#N)n1 [Compound 21, 4-[4-(2-Aminoethyl)phenyl]-3-[6-(2-cyanophenyl)-2-methylpyrimidin-4-yl]oxybenzonitrile] | < 0.01
30 | Cn1nc(-c2ccccc2)cc1Oc1cc(C#N)ccc1-c1ccc([C@@H](O)CN)cn1 [compound 365, 4-[5-[(1R)-2-amino-1-hydroxyethyl]pyridin-2-yl]-3-(2-methyl-5-phenylpyrazol-3-yl)oxybenzonitrile] | < 0.01
31 | Cc1ccc(-c2cc(Oc3cc(C#N)ccc3-c3ccc(CCN)nc3)n(C)n2)nc1 [Compound 181, 4-[6-(2-aminoethyl)pyridin-3-yl]-3-[2-methyl-5-(5-methylpyridin-2-yl)pyrazol-3-yl]oxybenzonitrile] | 0.01 to 1
